Test results: the supplement of paper PMC5908809

Key:
Assay in all cases: relative IC50 (inflection point of fitted viability curve, relative to fitted max inhibition); higher = less sensitive
Details in all cases: 72 h
NK-92 (IL-2 2.5 ng/mL) = test system: NK-92 (IL-2 2.5 ng/mL)
Method: (§1)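 Drug sensitivity and resistance testing: 5 concentrations over a 10,000-fold range, 72 h at 37 °C, viability by CellTiter-Glo normalised to DMSO and benzethonium chloride controls. IC50 is the inflection point of a logistic fit (min fixed at 0, max fitted), so it is relative to the fitted maximal inhibition. Kept only where fitted max inhibition is at least 50%.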

[1] = test system: normal primary NK cells, pool 1 (3 donors) (IL-2 2.5 ng/mL)
Method: as §1

NKL (IL-2 2.5 ng/mL) = test system: NKL (IL-2 2.5 ng/mL)
Method: as §1

YT (IL-2 2.5 ng/mL) = test system: YT (IL-2 2.5 ng/mL)
Method: as §1

[2] = test system: normal primary NK cells, pool 2 (3 donors) (IL-2 2.5 ng/mL)
Method: as §1

KAI3 (IL-2 2.5 ng/mL) = test system: KAI3 (IL-2 2.5 ng/mL)
Method: as §1

NK-YS (IL-2 2.5 ng/mL) = test system: NK-YS (IL-2 2.5 ng/mL)
Method: as §1

DERL-7 (IL-2 2.5 ng/mL) = test system: DERL-7 (IL-2 2.5 ng/mL)
Method: as §1

[3] = test system: normal primary NK cells, pool 3 (3 donors) (IL-2 2.5 ng/mL)
Method: as §1

[4] = test system: normal primary NK cells, pool 1 (3 donors), resting (IL-2 0 ng/mL)
Method: as §1

IMC-1 (IL-2 20 ng/mL) = test system: IMC-1 (IL-2 20 ng/mL)
Method: as §1

SNK-6 (IL-2 2.5 ng/mL) = test system: SNK-6 (IL-2 2.5 ng/mL)
Method: as §1

KHYG-1 (IL-2 2.5 ng/mL) = test system: KHYG-1 (IL-2 2.5 ng/mL)
Method: as §1

| Structure (SMILES) | relative IC50 (NK-92 (IL-2 2.5 ng/mL)) [µM] | relative IC50 [1] [µM] | relative IC50 (NKL (IL-2 2.5 ng/mL)) [µM] | relative IC50 (YT (IL-2 2.5 ng/mL)) [µM] | relative IC50 [2] [µM] | relative IC50 (KAI3 (IL-2 2.5 ng/mL)) [µM] | relative IC50 (NK-YS (IL-2 2.5 ng/mL)) [µM] | relative IC50 (DERL-7 (IL-2 2.5 ng/mL)) [µM] | relative IC50 [3] [µM] | relative IC50 [4] [µM] | relative IC50 (IMC-1 (IL-2 20 ng/mL)) [µM] | relative IC50 (SNK-6 (IL-2 2.5 ng/mL)) [µM] | relative IC50 (KHYG-1 (IL-2 2.5 ng/mL)) [µM] |
| --- | --- | --- | --- | --- | --- | --- | --- | --- | --- | --- | --- | --- | --- |
| COc1cccc2c1C(=O)c1c(O)c3c(c(O)c1C2=O)C[C@@](O)(C(=O)CO)C[C@@H]3O[C@H]1C[C@H](N)[C@H](O)[C@H](C)O1 [Doxorubicin] | 0.0762 | 0.118 | 0.00441 | 0.0696 | 0.119 | 0.0272 | 0.0294 | 0.0323 | 0.159 | 0.0599 | 0.0453 | 0.0412 | 0.0567 |
| CC(C)C[C@H](NC(=O)[C@H](Cc1ccccc1)NC(=O)c1cnccn1)B(O)O [Bortezomib] | 0.00332 | 0.00362 | 0.00328 | 0.00297 | 0.00328 | 0.00307 | 0.00304 | 0.00169 | 0.00362 | 0.0047 | 0.00334 | 0.00215 | 0.00294 |
| CN1CCC(CNc2ccc3ncc(-c4cccc(OC(F)(F)F)c4)n3n2)CC1 [SGI-1776] | 2.48 | 2.2 | 1.78 | 2.54 | 1.59 | 2 | 2.45 | 1.12 | 2.52 | 1.58 | 3.13 | 3.22 | 2.21 |
| C=CCNC1=C2C[C@@H](C)C[C@H](OC)[C@H](O)[C@@H](C)/C=C(\C)[C@H](OC(N)=O)[C@@H](OC)/C=C\C=C(/C)C(=O)NC(=CC1=O)C2=O [Tanespimycin] | 0.123 | 0.0798 | 0.0591 | 0.248 | 0.127 | 0.0764 | 0.0802 | 0.126 | 0.29 | 0.145 | 0.291 | 0.106 | 0.247 |
| Cc1ccc(NC(=O)c2ccc(CN3CCN(C)CC3)cc2)cc1Nc1nc(-c2cccnc2)cs1 [Masitinib] | 3.69 | 3.23 | 3.39 | 2.49 | 3.5 | 2.97 | 2.01 | 2 | 3.23 | 3.34 | 3.32 | 4.53 | 2.69 |
| c1ccc2c(CCNc3ccc(Nc4ccncc4)cc3)c[nH]c2c1 [Serdemetan] | 1.79 | 0.914 | 0.212 | 1.82 | 1.26 | 0.436 | 0.88 | 0.329 | 1.14 | 0.516 | 2.58 | 2.98 | 1.67 |
| Nc1ccn([C@@H]2O[C@H](CO)[C@@H](O)[C@@H]2O)c(=O)n1 [Cytarabine] | 0.096 | 1.44 | 0.0671 | – | 1.9 | 0.05 | 0.33 | 0.023 | 2.37 | 1.23 | 0.0854 | 0.193 | 0.0273 |
| CC(C)[C@H]1C(=O)N[C@@H](CCCNC(=N)N)C(=O)NCC(=O)N[C@@H](CC(=O)O)C(=O)N[C@H](Cc2ccccc2)C(=O)N1C [Cilengitide] | > 10 | > 10 | > 10 | > 10 | > 10 | – | – | – | > 10 | > 10 | > 10 | – | > 10 |
| COc1c(C)cnc(Cn2cnc3c(Cl)nc(N)nc32)c1C [BIIB021] | 0.0975 | 0.181 | 0.0957 | 0.0982 | 0.104 | 0.0543 | 0.0796 | 0.0684 | 0.254 | 0.226 | 0.15 | 0.0339 | 0.0618 |
| CCCCC(=O)OCC(=O)[C@]1(O)Cc2c(O)c3c(c(O)c2[C@@H](O[C@H]2C[C@H](NC(=O)C(F)(F)F)[C@H](O)[C@H](C)O2)C1)C(=O)c1c(OC)cccc1C3=O [Valrubicin] | 0.16 | 0.256 | 0.00661 | 0.235 | 0.245 | 0.0807 | 0.0751 | 0.0634 | 0.381 | 0.179 | 0.096 | 0.0881 | 0.164 |
| COc1ccc(C2=N[C@@H](c3ccc(Cl)cc3)[C@@H](c3ccc(Cl)cc3)N2C(=O)N2CCNC(=O)C2)c(OC(C)C)c1 [Nutlin-3] | – | 1.49 | – | 1.44 | 1.96 | 0.731 | 1.09 | 1.47 | 2.75 | 0.442 | – | 1.01 | – |
| COc1cc2c(NC3CCN(C(C)C)CC3)nc(N3CCC(F)(F)CC3)nc2cc1OCCCN1CCCC1 [UNC0642] | – | 1.81 | 1.64 | 2.69 | 3.39 | 0.987 | 2.44 | 3.16 | 3.45 | 1.56 | 2.45 | 1.53 | – |
| C#Cc1cccc(Nc2ncnc3cc(OC)c(OCCCCCCC(=O)NO)cc23)c1 [CUDC-101] | 0.277 | 0.293 | 0.412 | 0.267 | 0.347 | 0.27 | 0.889 | 0.177 | 0.504 | 0.198 | 1.02 | 0.276 | 0.131 |
